From paper PMC7000685, “Loss of GFAT-1 feedback regulation activates the hexosamine pathway that modulates protein homeostasis” (Nature Communications, 2020)
One block for each molecule: values may come before it.

Legend:
human GFAT-1 [1] = molecular target: T1, human GFAT-1 (Homo sapiens, UniProt Q06210); assay: X-ray crystal structure (soaking); type: binding; conditions: 5 mM soak, 2 h; UDP-GlcNAc site of isomerase domain; inhibition curve in the GDH-coupled assay only in Figure 4g
T1 construct: gene GFPT1; full length isoform 2, internal His6-tag inserted between Gly299 and Asp300 (kept), initial Met removed, Sf21 baculovirus (MultiBac), Ni-NTA and SEC; phosphorylated S243 found; dimer in crystal

human GFAT-1 [2] = molecular target: T1, human GFAT-1; assay: X-ray crystal structure (co-crystallization); type: binding
human GFAT-1 [3] = molecular target: T1, human GFAT-1; assay: GDH-coupled glutaminase (amidohydrolysis) assay, […] nm; type: biochemical; conditions: 10 mM L-Gln, 6 mM Frc6P, 1 mM APAD, 1 mM EDTA, 50 mM KCl, 100 mM potassium phosphate pH 7.5, 37 °C; feedback inhibitor bound at isomerase domain (allosteric)
human GFAT-1 [4] = molecular target: T1, human GFAT-1; assay: X-ray crystal structure (crystallized with Frc6P); type: binding; conditions: isomerase site; linear Glc6P modelled, Frc6P not excluded at this resolution

T1 sequence (Q06210 2-681 isoform Q06210-2): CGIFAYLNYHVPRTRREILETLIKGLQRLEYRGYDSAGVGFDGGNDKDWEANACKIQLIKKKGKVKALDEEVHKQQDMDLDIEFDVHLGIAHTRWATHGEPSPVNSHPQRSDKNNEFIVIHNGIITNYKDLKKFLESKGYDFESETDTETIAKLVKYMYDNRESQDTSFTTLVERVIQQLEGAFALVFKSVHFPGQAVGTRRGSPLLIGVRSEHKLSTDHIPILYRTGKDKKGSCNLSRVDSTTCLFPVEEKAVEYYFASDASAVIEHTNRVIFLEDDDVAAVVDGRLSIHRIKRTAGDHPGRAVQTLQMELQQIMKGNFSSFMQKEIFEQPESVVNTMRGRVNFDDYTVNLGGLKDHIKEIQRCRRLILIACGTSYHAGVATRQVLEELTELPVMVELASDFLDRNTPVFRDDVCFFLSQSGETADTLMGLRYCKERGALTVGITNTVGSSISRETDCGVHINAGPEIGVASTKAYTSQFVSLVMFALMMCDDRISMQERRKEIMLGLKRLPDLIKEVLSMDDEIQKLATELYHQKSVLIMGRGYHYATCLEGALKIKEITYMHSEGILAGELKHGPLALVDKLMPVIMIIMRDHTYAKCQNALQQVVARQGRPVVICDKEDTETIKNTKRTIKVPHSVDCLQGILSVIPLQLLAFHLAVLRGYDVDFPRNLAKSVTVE

SMILES: CC(=O)N[C@H]1[C@@H](OP(=O)(O)OP(=O)(O)OC[C@H]2O[C@@H](n3ccc(=O)[nH]c3=O)[C@H](O)[C@@H]2O)O[C@H](CO)[C@H](O)[C@@H]1O [UDP-GalNAc]
X-ray crystal structure (soaking) (human GFAT-1 [1]): UDP-GalNAc was detected in the UDP-GlcNAc binding site after crystal soaking

SMILES: N[C@H]1C(O)O[C@H](COP(=O)(O)O)[C@@H](O)[C@@H]1O (stereo partly drawn) [D-GlcN6P]
X-ray crystal structure (co-crystallization) (human GFAT-1 [2]; 1 mM GlcN6P, with L-Glu, linear sugar in isomerase site): The GlcN6P-bound structure formed the same asymmetric dimer as the Glc6P-bound structure

IC50 (human GFAT-1 [3]): 43.3 (−2.3/+2.5) µM
SMILES: CC(=O)N[C@H]1[C@@H](OP(=O)(O)OP(=O)(O)OC[C@H]2O[C@@H](n3ccc(=O)[nH]c3=O)[C@H](O)[C@@H]2O)O[C@H](CO)[C@@H](O)[C@@H]1O [UDP-GlcNAc]

SMILES: N[C@@H](CCC(=O)O)C(=O)O [L-Glu]
X-ray crystal structure (co-crystallization) (human GFAT-1 [2]; 50 mM L-Glu, glutaminase site of monomer A only): The product L-Glu is bound to the glutaminase active site in one monomer (monomer A)

SMILES: O=P(O)(O)OC[C@H]1OC(O)[C@H](O)[C@@H](O)[C@@H]1O (some centres unmarked) [Glc6P]
X-ray crystal structure (crystallized with Frc6P) (human GFAT-1 [4]): we decided to model the product Glc6P in our crystal structures
